Tested on: not listed separately
Experiment: Half life in Sprague-Dawley rat at 2 mg/kg, po administered as gastric bolus by LC/MS/MS analysis
Type: ADME, organism-based
Details: in vivo

Row | SMILES | half-life [h]
1 | CNS(=O)(=O)c1ccc(N(C)C)c(Nc2ncnc3cc(OC)c(OC)cc23)c1 | 3.6

Tested on: not listed separately
Experiment: Cmax in Sprague-Dawley rat at 2 mg/kg, po administered as gastric bolus by LC/MS/MS analysis
Type: ADME, organism-based
Design: dose 2 mg/kg, route oral
Details: in vivo

Row | SMILES | Cmax [ng/mL]
2 | CNS(=O)(=O)c1ccc(N(C)C)c(Nc2ncnc3cc(OC)c(OC)cc23)c1 | 130

Molecular target: T1, Serine/threonine-protein kinase TNNI3K (Homo sapiens, UniProt Q59H18)
T1 sequence (Q59H18 whole entry): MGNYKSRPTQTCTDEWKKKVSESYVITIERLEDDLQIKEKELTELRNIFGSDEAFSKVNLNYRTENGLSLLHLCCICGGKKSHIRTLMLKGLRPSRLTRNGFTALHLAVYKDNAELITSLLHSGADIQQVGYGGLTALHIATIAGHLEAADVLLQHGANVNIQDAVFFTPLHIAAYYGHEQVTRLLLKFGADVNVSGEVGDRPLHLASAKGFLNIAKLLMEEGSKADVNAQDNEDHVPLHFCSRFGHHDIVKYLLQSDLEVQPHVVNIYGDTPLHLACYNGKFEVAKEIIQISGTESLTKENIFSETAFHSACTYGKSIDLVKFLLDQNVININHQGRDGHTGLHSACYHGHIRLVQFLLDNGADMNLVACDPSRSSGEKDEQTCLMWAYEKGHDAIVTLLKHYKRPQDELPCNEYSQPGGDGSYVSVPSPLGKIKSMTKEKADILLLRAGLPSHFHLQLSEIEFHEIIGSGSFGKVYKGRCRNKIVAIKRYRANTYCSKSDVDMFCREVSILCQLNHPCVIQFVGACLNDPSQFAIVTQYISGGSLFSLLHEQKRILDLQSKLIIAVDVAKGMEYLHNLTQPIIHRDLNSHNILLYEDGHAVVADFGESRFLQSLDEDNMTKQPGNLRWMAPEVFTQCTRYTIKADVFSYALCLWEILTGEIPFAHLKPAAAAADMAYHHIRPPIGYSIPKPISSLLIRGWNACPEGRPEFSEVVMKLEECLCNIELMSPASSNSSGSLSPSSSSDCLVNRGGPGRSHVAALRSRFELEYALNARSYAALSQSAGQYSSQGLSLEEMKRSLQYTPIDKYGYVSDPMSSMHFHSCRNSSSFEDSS
Experiment: Displacement of 5-({[2-({[3-({4-[(5-hydroxy-2-methylphenyl)amino]-2-pyrimidinyl}amino)phenyl]carbonyl}amino)-ethyl]amino}carbonyl)-2-(6-hydroxy-3-oxo-3H-xanthen-9-yl)benzoic acid from full length human TNNI3K expressed in baculovirus system incubated for 60 mins by fluorescence polarization assay
Details: not given

Row | SMILES | IC50 [nM]
3 | CCOc1cc2ncnc(Nc3cc(S(=O)(=O)NC)ccc3OCC(F)(F)F)c2cc1OC | 13
4 | CNS(=O)(=O)c1ccc(N(C)C)c(Nc2ncnc3cc(N)ccc23)c1 | 63
5 | CNS(=O)(=O)c1ccc(OCC(F)(F)F)c(Nc2ncnc3cc(OC)c(OC)cc23)c1 | 25
6 | CNS(=O)(=O)c1ccc(N(C)C)c(Nc2ncnc3cc(OC)c(OC)cc23)c1 | 25
7 | CNS(=O)(=O)c1ccc(OCC(F)(F)F)c(Nc2ncnc3cc(OCCCOC)ccc23)c1 | 25
8 | CNS(=O)(=O)c1ccc(N(C)C)c(Nc2ncnc3ccc(OC)cc23)c1 | 79
9 | CNc1ccc2c(Nc3cc(S(=O)(=O)NC)ccc3N(C)C)ncnc2c1 | 40
10 | CNS(=O)(=O)c1ccc(OCC(F)(F)F)c(Nc2ncnc3cc(OC)cc(OC)c23)c1 | < 10
11 | CNS(=O)(=O)c1ccc(N(C)C)c(Nc2ncnc3cc(OCCCOC)ccc23)c1 | < 10
12 | CNS(=O)(=O)c1ccc(N(C)C)c(Nc2ncnc3ccc(N)cc23)c1 | 32
13 | CNS(=O)(=O)c1ccc(N(C)C)c(Nc2ncnc3ccsc23)c1 | 200
14 | CNS(=O)(=O)c1ccc(OCC(F)(F)F)c(Nc2ncnc3cc(OCCCN4CCOCC4)ccc23)c1 | 13
15 | CNS(=O)(=O)c1ccc(N(C)C)c(Nc2ncnc3cc(OCCCN4CCOCC4)ccc23)c1 | < 10
16 | CNS(=O)(=O)c1ccc(N(C)C)c(Nc2ncnc3ccccc23)c1 | 200
17 | CNS(=O)(=O)c1ccc(N(C)C)c(Nc2ncnc3ccn(C)c23)c1 | 16
18 | CNS(=O)(=O)c1ccc(N2CCOCC2)c(Nc2ncnc3[nH]cc(Cl)c23)c1 | < 10
19 | CNS(=O)(=O)c1ccc(N(C)C)c(Nc2ncnc3cc(OC)cc(OC)c23)c1 | < 10
20 | CNS(=O)(=O)c1ccc(OCC(F)(F)F)c(Nc2ncnc3cc(OC)c(OC)c(OC)c23)c1 | < 10
21 | CNc1ccc2ncnc(Nc3cc(S(=O)(=O)NC)ccc3N(C)C)c2c1 | 50
22 | CNS(=O)(=O)c1ccc(N(C)C)c(Nc2ncnc3cc[nH]c23)c1 | 25
23 | CNS(=O)(=O)c1ccc(OCC(F)(F)F)c(Nc2ncnc3cc(OC(C)C)c(OC)cc23)c1 | 130

Molecular target: Serine/threonine-protein kinase B-raf (Homo sapiens, UniProt P15056, V600E)
Sequence (P15056 2-766 V600E limits assumed): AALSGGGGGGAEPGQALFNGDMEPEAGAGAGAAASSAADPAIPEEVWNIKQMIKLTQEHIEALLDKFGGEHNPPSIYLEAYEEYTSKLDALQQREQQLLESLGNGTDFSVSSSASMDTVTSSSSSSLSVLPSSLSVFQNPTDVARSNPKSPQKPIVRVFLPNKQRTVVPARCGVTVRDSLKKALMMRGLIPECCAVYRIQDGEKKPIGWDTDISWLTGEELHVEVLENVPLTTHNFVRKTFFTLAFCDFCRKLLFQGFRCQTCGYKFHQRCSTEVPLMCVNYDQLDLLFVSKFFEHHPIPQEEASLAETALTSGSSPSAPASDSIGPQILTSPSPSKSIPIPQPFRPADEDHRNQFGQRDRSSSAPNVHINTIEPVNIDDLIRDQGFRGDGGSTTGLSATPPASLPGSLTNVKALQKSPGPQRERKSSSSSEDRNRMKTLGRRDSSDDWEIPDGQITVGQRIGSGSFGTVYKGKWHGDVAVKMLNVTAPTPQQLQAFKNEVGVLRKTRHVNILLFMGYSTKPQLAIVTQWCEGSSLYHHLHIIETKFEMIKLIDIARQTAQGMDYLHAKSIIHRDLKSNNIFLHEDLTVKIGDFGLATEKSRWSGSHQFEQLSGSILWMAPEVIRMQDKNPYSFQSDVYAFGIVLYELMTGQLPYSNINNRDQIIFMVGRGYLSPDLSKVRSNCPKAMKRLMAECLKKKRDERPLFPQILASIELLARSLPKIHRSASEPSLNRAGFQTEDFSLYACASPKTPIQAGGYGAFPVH
Experiment: Inhibition of full-length His6-tagged BRAF V600E mutant (2 to 766 residues) (unknown origin) expressed in baculovirus system by B-Raf accelerated MEK ATPase assay
Details: not given

Row | SMILES | IC50 [nM]
24 | CCOc1cc2ncnc(Nc3cc(S(=O)(=O)NC)ccc3OCC(F)(F)F)c2cc1OC | 100
25 | CNS(=O)(=O)c1ccc(N(C)C)c(Nc2ncnc3cc(N)ccc23)c1 | 4000
26 | CNS(=O)(=O)c1ccc(OCC(F)(F)F)c(Nc2ncnc3cc(OC)c(OC)cc23)c1 | 130
27 | CNS(=O)(=O)c1ccc(N(C)C)c(Nc2ncnc3cc(OC)c(OC)cc23)c1 | 1000
28 | CNS(=O)(=O)c1ccc(OCC(F)(F)F)c(Nc2ncnc3cc(OCCCOC)ccc23)c1 | 160
29 | CNS(=O)(=O)c1ccc(N(C)C)c(Nc2ncnc3ccc(OC)cc23)c1 | 1000
30 | CNc1ccc2c(Nc3cc(S(=O)(=O)NC)ccc3N(C)C)ncnc2c1 | 10000
31 | CNS(=O)(=O)c1ccc(OCC(F)(F)F)c(Nc2ncnc3cc(OC)cc(OC)c23)c1 | 50
32 | CNS(=O)(=O)c1ccc(N(C)C)c(Nc2ncnc3cc(OCCCOC)ccc23)c1 | 800
33 | CNS(=O)(=O)c1ccc(N(C)C)c(Nc2ncnc3ccc(N)cc23)c1 | 630
34 | CNS(=O)(=O)c1ccc(N(C)C)c(Nc2ncnc3ccsc23)c1 | 1000
35 | CNS(=O)(=O)c1ccc(OCC(F)(F)F)c(Nc2ncnc3cc(OCCCN4CCOCC4)ccc23)c1 | 1300
36 | CNS(=O)(=O)c1ccc(N(C)C)c(Nc2ncnc3cc(OCCCN4CCOCC4)ccc23)c1 | 2500
37 | CNS(=O)(=O)c1ccc(N(C)C)c(Nc2ncnc3ccccc23)c1 | 250
38 | CNS(=O)(=O)c1ccc(N(C)C)c(Nc2ncnc3ccn(C)c23)c1 | 130
39 | CNS(=O)(=O)c1ccc(N2CCOCC2)c(Nc2ncnc3[nH]cc(Cl)c23)c1 | 0.6
40 | CNS(=O)(=O)c1ccc(N(C)C)c(Nc2ncnc3cc(OC)cc(OC)c23)c1 | 79
41 | CNS(=O)(=O)c1ccc(OCC(F)(F)F)c(Nc2ncnc3cc(OC)c(OC)c(OC)c23)c1 | 79
42 | CNc1ccc2ncnc(Nc3cc(S(=O)(=O)NC)ccc3N(C)C)c2c1 | 1000
43 | CNS(=O)(=O)c1ccc(N(C)C)c(Nc2ncnc3cc[nH]c23)c1 | 250
44 | CNS(=O)(=O)c1ccc(OCC(F)(F)F)c(Nc2ncnc3cc(OC(C)C)c(OC)cc23)c1 | 32000

Molecular target: T1, Serine/threonine-protein kinase TNNI3K
Experiment: Inhibition of human myc-tagged TNNI3K autophosphorylation overexpressed in HEKMSR2 cells incubated for 30 mins by time resolved fluorescence assay
Type: cell-based
Details: not given

Row | SMILES | IC50 [nM]
45 | CCOc1cc2ncnc(Nc3cc(S(=O)(=O)NC)ccc3OCC(F)(F)F)c2cc1OC | 50
46 | CNS(=O)(=O)c1ccc(OCC(F)(F)F)c(Nc2ncnc3cc(OC)c(OC)cc23)c1 | 160
47 | CNS(=O)(=O)c1ccc(N(C)C)c(Nc2ncnc3cc(OC)c(OC)cc23)c1 | 100
48 | CNS(=O)(=O)c1ccc(OCC(F)(F)F)c(Nc2ncnc3cc(OCCCOC)ccc23)c1 | 320
49 | CNS(=O)(=O)c1ccc(OCC(F)(F)F)c(Nc2ncnc3cc(OC)cc(OC)c23)c1 | 13
50 | CNS(=O)(=O)c1ccc(N(C)C)c(Nc2ncnc3cc(OCCCOC)ccc23)c1 | 25
51 | CNS(=O)(=O)c1ccc(OCC(F)(F)F)c(Nc2ncnc3cc(OCCCN4CCOCC4)ccc23)c1 | 79
52 | CNS(=O)(=O)c1ccc(N(C)C)c(Nc2ncnc3cc(OCCCN4CCOCC4)ccc23)c1 | 25
53 | CNS(=O)(=O)c1ccc(N(C)C)c(Nc2ncnc3ccn(C)c23)c1 | 50
54 | CNS(=O)(=O)c1ccc(N(C)C)c(Nc2ncnc3cc(OC)cc(OC)c23)c1 | 10
55 | CNS(=O)(=O)c1ccc(OCC(F)(F)F)c(Nc2ncnc3cc(OC)c(OC)c(OC)c23)c1 | 63
56 | CNS(=O)(=O)c1ccc(N(C)C)c(Nc2ncnc3cc[nH]c23)c1 | 500

Tested on: Rattus norvegicus
Experiment: Dose normalized AUC in Sprague-Dawley rat at 2 mg/kg, po administered as gastric bolus by LC/MS/MS analysis
Type: ADME, organism-based
Details: in vivo

Row | SMILES | AUC/dose [kg·h/L]
57 | CCOc1cc2ncnc(Nc3cc(S(=O)(=O)NC)ccc3OCC(F)(F)F)c2cc1OC | 1.7
58 | CNS(=O)(=O)c1ccc(OCC(F)(F)F)c(Nc2ncnc3cc(OC)c(OC)cc23)c1 | 1.9
59 | CNS(=O)(=O)c1ccc(N(C)C)c(Nc2ncnc3cc(OC)c(OC)cc23)c1 | 0.18
60 | CNS(=O)(=O)c1ccc(OCC(F)(F)F)c(Nc2ncnc3cc(OCCCOC)ccc23)c1 | 0.07
61 | CNS(=O)(=O)c1ccc(OCC(F)(F)F)c(Nc2ncnc3cc(OC)cc(OC)c23)c1 | 1.4
62 | CNS(=O)(=O)c1ccc(N(C)C)c(Nc2ncnc3cc(OCCCOC)ccc23)c1 | 0.03
63 | CNS(=O)(=O)c1ccc(OCC(F)(F)F)c(Nc2ncnc3cc(OCCCN4CCOCC4)ccc23)c1 | 0
64 | CNS(=O)(=O)c1ccc(N(C)C)c(Nc2ncnc3cc(OCCCN4CCOCC4)ccc23)c1 | 0.02
65 | CNS(=O)(=O)c1ccc(N(C)C)c(Nc2ncnc3[nH]ccc23)c1 | 0.59
66 | CNS(=O)(=O)c1ccc(N(C)C)c(Nc2ncnc3ccn(C)c23)c1 | 0.02
67 | CNS(=O)(=O)c1ccc(N(C)C)c(Nc2ncnc3cc(OC)cc(OC)c23)c1 | 0.04
68 | CNS(=O)(=O)c1ccc(OCC(F)(F)F)c(Nc2ncnc3cc(OC)c(OC)c(OC)c23)c1 | 0.24
69 | CNS(=O)(=O)c1ccc(N(C)C)c(Nc2ncnc3cc[nH]c23)c1 | 0.01

Tested on: not listed separately
Experiment: Fraction unbound in Sprague-Dawley rat plasma at 2 mg/kg, po administered as gastric bolus by LC/MS/MS analysis
Type: ADME, organism-based
Details: not given

Row | SMILES | fraction unbound
70 | CNS(=O)(=O)c1ccc(N(C)C)c(Nc2ncnc3cc(OC)c(OC)cc23)c1 | 0.202

Reference: ChEMBL document CHEMBL3813650, “GSK114: A selective inhibitor for elucidating the biological role of TNNI3K” (Bioorg Med Chem Lett, 2016)
